Measurements as given in patent US7195901B1 (priority 2004, dated 2007).

Tested on: yeast endogenous DGAT
Assay type: biochemical, S. cerevisiae
Details: 1 mM diricinolein; yeast grown under repression (2% glucose) condition

1,2-diricinolein
absolute incorporation of 14C-oleate into RRO: less than 20 pmol/mg/min
